Measured values taken from patent EP0552417B1, “Cyclic peptides and use thereof” (priority 1991, dated 1993).
Non-standard residues stand in square brackets, D forms with d. Residues, ends and D or L forms follow the SMILES beside them. *: point of attachment. 1Nal = N[C@@H](Cc1cccc2ccccc12)C(=O)O; Bn = c1ccc(C*)cc1

What was measured:
[1] = target: T1, endothelin receptor A (ETA) (Sus scrofa, UniProt Q29010); assay: Assay of affinity for receptor (1): binding activity on ETA receptor, 125I-labeled endothelin-1, porcine heart membrane fraction; parameters: key: relative specific activity; reference cyclic pentapeptide ETA binding = 1.0; conditions: specific activity, taking the binding activity of control cyclo[-D-Glu-Ala-D-aIle-Leu-D-Trp-] on receptor A as 1.0, 25°C, 1 hour
T1 construct: A membrane fraction prepared from the porcine heart; from tissue; host or cells: porcine heart membrane fraction
T1 sequence (Q29010 21-427): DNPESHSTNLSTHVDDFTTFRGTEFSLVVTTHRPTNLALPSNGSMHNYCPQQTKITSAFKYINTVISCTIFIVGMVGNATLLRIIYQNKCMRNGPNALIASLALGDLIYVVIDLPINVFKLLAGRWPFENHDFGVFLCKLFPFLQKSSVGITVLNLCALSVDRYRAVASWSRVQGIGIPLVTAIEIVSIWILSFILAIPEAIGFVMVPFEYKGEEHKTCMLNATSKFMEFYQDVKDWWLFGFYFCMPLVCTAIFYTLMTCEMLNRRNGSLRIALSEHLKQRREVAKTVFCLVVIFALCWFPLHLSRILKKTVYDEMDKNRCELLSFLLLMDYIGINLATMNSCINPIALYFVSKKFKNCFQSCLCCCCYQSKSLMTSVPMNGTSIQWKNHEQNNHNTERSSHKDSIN
Procedure, shortened: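 Porcine heart membranes (0.15 mg/ml) incubated with 125I-endothelin-1 and test peptide for 1 h at 25°C, then centrifuged; pellet-bound radioactivity counted by gamma counter. Values given as specific activity relative to reference cyclo[-D-Glu-Ala-D-aIle-Leu-D-Trp-], set at 1.0.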

[2] = target: T2, endothelin receptor B (ETB) (Bos taurus, UniProt P28088); assay: Assay of affinity for receptor (2): binding activity on ETB receptor *1, 125I-labeled endothelin-1, bovine brain membrane fraction; conditions: 1 hour; for Binding Activity on ET Receptor (R. act.) ETB*1: specific activity, taking the binding activity of the compound of Example 8 on receptor B as 100, 25°C
T2 construct: A membrane fraction prepared from the bovine brain; from tissue; host or cells: bovine brain membrane fraction
T2 sequence (P28088 27-441): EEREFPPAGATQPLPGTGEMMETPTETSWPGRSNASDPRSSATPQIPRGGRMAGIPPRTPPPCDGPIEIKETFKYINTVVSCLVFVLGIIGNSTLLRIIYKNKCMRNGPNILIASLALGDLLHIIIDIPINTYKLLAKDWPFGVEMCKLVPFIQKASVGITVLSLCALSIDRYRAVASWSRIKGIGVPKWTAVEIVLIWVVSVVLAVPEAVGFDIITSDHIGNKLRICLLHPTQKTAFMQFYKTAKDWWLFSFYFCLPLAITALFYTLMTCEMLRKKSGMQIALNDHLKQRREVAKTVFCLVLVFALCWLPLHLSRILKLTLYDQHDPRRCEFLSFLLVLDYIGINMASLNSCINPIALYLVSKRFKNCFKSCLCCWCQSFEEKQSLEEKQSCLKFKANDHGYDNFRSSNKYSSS
Experimental: Assay of Affinity for Receptor (2) ... Binding Activity on ETB Receptor *1
A membrane fraction prepared from the bovine brain was diluted to 0.15 mg/ml by using a buffer solution for assay, and 100 µl of the resulting suspension of the membrane fraction was poured into each assay tube to use for assay. To this suspension of the membrane fraction was added 2 µl of 5 nM ^125I labeled endothelin-1 solution. Further, 3 µl of a test peptide solution was added thereto, followed by incubation at a temperature of 25°C for 1 hour. Then, the resulting suspension was diluted with 900 µl of the buffer solution for assay cooled with ice, and thereafter separated into a supernatant and a precipitate by centrifugation at 12,000 X g for 10 minutes. Cell membranes and an endothelin receptor B (ETB) embedded therein were contained in the precipitate, and radioactive iodine-labeled endothelin bound to the receptor was also recovered in the precipitate. Accordingly, the amount of radioactive iodine-labeled endothelin bound to the endothelin receptor B (ETB) was determined by measuring the amount of radioactive iodine contained in the precipitate with a gamma-ray counter. The numerical value of ETB shown in Table 1 is the value of specific activity, taking the binding activity of the compound of Example 8 on the receptor B as 100.

SMILES	Binding Activity on ET Receptor (R. act.) ETA [1]	IC50 ([2]; 25°C) [µM]	Binding Activity on ET Receptor (R. act.) ETB*1 [2]
CC(C)C[C@@H]1NC(=O)[C@@H](CC(C)C)NC(=O)[C@H](CC(=O)O)NC(=O)[C@H](Cc2c[nH]c3ccccc23)NC(=O)[C@@H](CC(=O)O)NC(=O)[C@@H](Cc2c[nH]c3ccccc23)NC1=O [Example 8, cyclo[-D-Asp-Trp-Asp-D-Leu-Leu-D-Trp-]] (cyclo(D[dL]L[dW][dD]W))	76	3	100
CC(C)C[C@@H]1NC(=O)[C@@H](CC(C)C)NC(=O)[C@H](CC(=O)O)NC(=O)[C@H](Cc2cccc3ccccc23)NC(=O)[C@@H](CC(=O)O)NC(=O)[C@@H](Cc2c[nH]c3ccccc23)NC1=O [Example 23, Cyclo[-D-Asp-Nal(1)-Asp-D-Leu-Leu-D-Trp-]] (cyclo([1Nal]D[dL]L[dW][dD]))	8.3		11
CC(C)C[C@@H]1NC(=O)[C@@H](CC(C)C)NC(=O)[C@H](CCC(=O)O)NC(=O)[C@H](Cc2c[nH]c3ccccc23)NC(=O)[C@@H](CC(=O)O)NC(=O)[C@@H](Cc2c[nH]c3ccccc23)NC1=O [Example 34, Cyclo[-D-Asp-Trp-Glu-D-Leu-Leu-D-Trp-]] (cyclo(E[dL]L[dW][dD]W))	20		77
CC(C)C[C@@H]1NC(=O)[C@H](Cc2c[nH]c3ccccc23)NC(=O)[C@@H](CC(=O)O)NC(=O)[C@@H](Cc2c[nH]c3ccccc23)NC(=O)[C@H](CC(C)C)NC(=O)[C@@H](CC(C)C)NC1=O [Example 35, Cyclo[-D-Asp-Trp-Leu-D-Leu-Leu-D-Trp-]] (cyclo(L[dL]L[dW][dD]W))	9.1		52
CC(C)C[C@@H]1NC(=O)[C@@H](CC(C)C)NC(=O)[C@@H]2CCCN2C(=O)[C@H](Cc2c[nH]c3ccccc23)NC(=O)[C@@H](CC(=O)O)NC(=O)[C@@H](Cc2c[nH]c3ccccc23)NC1=O [Example 36, Cyclo[-D-Asp-Trp-Pro-D-Leu-Leu-D-Trp-]] (cyclo(L[dW][dD]WP[dL]))	17		40
CC(C)C[C@@H]1NC(=O)[C@@H](CC(C)C)NC(=O)[C@H](CO)NC(=O)[C@H](Cc2c[nH]c3ccccc23)NC(=O)[C@@H](CC(=O)O)NC(=O)[C@@H](Cc2c[nH]c3ccccc23)NC1=O [Example 37, Cyclo[-D-Asp-Trp-Ser-D-Leu-Leu-D-Trp-]] (cyclo(L[dW][dD]WS[dL]))	24		22
CC(C)C[C@@H]1NC(=O)[C@@H](CC(C)C)NC(=O)[C@H](COCc2ccccc2)NC(=O)[C@H](Cc2c[nH]c3ccccc23)NC(=O)[C@@H](CC(=O)O)NC(=O)[C@@H](Cc2c[nH]c3ccccc23)NC1=O [Example 38, Cyclo[-D-Asp-Trp-Ser(Bzl)-D-Leu-Leu-D-Trp-]] (cyclo(L[dW][dD]WS(Bn)[dL]))	13		66
